Patent publication US8497075B2, “Methods of identifying a modulator that inhibits the binding between Epstein-Barr virus induced receptor 2 and cholesterol derived ligands” (Novartis AG, priority 2008, dated 2013)
Like-named read-outs stand apart in the source and are kept apart here.

What was measured:
Design in all cases: expressed in transfected cells; host or cells: CHO-K1 expressing apoaequorin (CHO-Aeq) with Gqi5; line E2
hEBI2 [1] = target: T1, hEBI2 (Homo sapiens, UniProt P32249); test: calcium fluorescence (FLIPR); assay type: cell-based
T1 sequence (P32249 whole entry): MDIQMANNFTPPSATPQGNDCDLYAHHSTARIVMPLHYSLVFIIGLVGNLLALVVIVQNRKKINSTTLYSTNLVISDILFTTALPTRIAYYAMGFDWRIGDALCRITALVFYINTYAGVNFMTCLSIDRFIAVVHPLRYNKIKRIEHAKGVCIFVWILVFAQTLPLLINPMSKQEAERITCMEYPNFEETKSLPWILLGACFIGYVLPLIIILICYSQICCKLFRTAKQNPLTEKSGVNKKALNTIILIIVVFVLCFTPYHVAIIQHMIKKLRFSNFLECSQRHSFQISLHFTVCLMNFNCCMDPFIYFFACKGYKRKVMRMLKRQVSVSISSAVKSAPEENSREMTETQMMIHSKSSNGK
Protocol: If not stated otherwise compounds were dissolved at 10 mM in DMSO or ethanol (cholesterol, 25MDC). Serial dilutions were carried out in 90% DMSO (FLIPR, GTPgS) or assay buffer (binding assay). For cell based assays final DMSO concentrations is kept below 1%.
If not stated otherwise, the same Chinese hamster ovary (CHO) cell line called E2 which was used for the ligand identification was used in these experiments. This cell line is expressing (1) the recombinant human EBI2 receptor, (2) the promiscuous Gqi5 protein as well as (3) apo-aequorin.
Cells were seeded in black/clear bottom, poly-D-Lysine coated 384-well plates at a cell density of 10,000 cells/25 μL/well, using culture medium. Cells were cultured for 24 hours at 37° C./5% CO2. Culture medium was removed and for cell loading, 20 μl per well of loading buffer (Calcium-4 no wash dye) were distributed into the wells and the plates were incubated for 60 min at 37° C. in 5% CO2. With the FLIPR pipettor, 10 μl of the different compounds were added to the cells and the subsequent fluorescent changes monitored for 3 minutes. Using the FLIPR software tool, 2 values of fluorescence calcium responses were exported: Fmax, the fluorescence at the peak and Fbasal corresponding to the value prior to compound injection. From these two values, the calcium response is normalized with respect to the calcium baseline values using dF/F=(Fmax−Fbasal)/Fbasal. The maximum dF/F is called Emax.

hEBI2 [2] = target: T1, hEBI2; test: GTPγS assay on EBI2 membranes; assay type: biochemical
Protocol: (§1) The cell suspension was then homogenized using a Dounce homogenizer (10 strokes) with a driller. After centrifugation at 110000×g for 45 minutes and removal of the supernatant, pellets were resuspended in sucrose buffer (50 mM Tris pH7.2, 250 mM sucrose, 10% glycerol) by vortexing. The suspension was again homogenize using a Dounce homogenizer (10 strokes) and spun at 100000×g for 45 minutes. The supernatant was discarded, the pellet resuspended in sucrose buffer, protein concentration determined, aliquoted and frozen at −80° C. These membrane preparations were used in binding as well as GTPgS assays.
Ten micrograms of EBI2 membranes are dissolved in 40 μl of buffer A (20 mM Hepes pH 7.4, 100 mM NaCl, 1.5 mM MgCl2, Saponin 10 μg/ml) supplemented with 10 μM GDP. After addition of […] scintilation proximity assay (SPA) beads (100 μg/well, Amersham, RPNQ0001) components are gently mixed and incubated at RT for 15 minutes. Twenty microliters of compound diluted in buffer A and 20 μl of GTPγ^35S (Perkin Elmer NEG030X) is added before incubation for one hour at RT. Plates are transferred and counted in a TopCount (Perkin Elmer NXT HTS™) and counts are analysed plotted and to determine half maximal concentrations of activation using standard software (Prism™, GraphPad Software Inc.).

hEBI2 [3] = target: T1, hEBI2; test: [3H] 7a,25DHC radio-ligand binding assay (SPA), IC50 determination
Protocol: as §1
Lyophilized wheat germ agglutinin scintilation proximity assay (SPA) beads (RPNQ0001) were purchased from GE Healthcare (Buckinghamshire, UK). One vial (500 mg) is reconstituted by adding 5 mL of distilled water to give a final concentration of 100 mg/mL. Reconstituted SPA beads must be stored at 4° C., but must not be frozen. [3H]-7a,25-OHC, was synthesized by reduction of the 7-keto, 25DHC in the presence of 3H-L-selectride.
The SPA assay was performed in a final volume of 50 μl per well in a 384-well polystyrene Opti plate. The components were added into the wells as follows: • 10 μl tested compounds in 50 mM Tris; 100 mM NaCl; 5 mM MgCl2 and 0.1% Cyclodextrine.
Total binding was determined by the addition of 10 μl of 50 mM Tris; 100 mM NaCl; 5 mM MgCl2 and 0.1% Cyclodextrine and non-specific binding was determined by the addition of 10 μl NVP-BYX998-NX-4 (final concentration of 10 μM). • 20 μL of 10 nM final [3H]-BYX998 in assay buffer (50 mM Tris-HCl, 100 mM NaCl, 5 mM MgCl2 and 0.1% Cyclodextrine). • 20 μL of a mixed bead and membrane suspension in assay buffer, in order to get a final concentration of 20 μg membranes/well and 200 μg beads/well.
The plates were sealed and shaken at room temperature for 10 minutes then allowed to stand at room temperature for at least 12 hours. The plates were counted using a Perkin Elmer TopCount reader, each well being counted for 1 minute.
Each IC50 determination was performed with 11 concentrations.
A standard data reduction algorithm was used to calculate the percentage of specific binding in the presence of test compound as follows: ((B−NSB)/(Total−NSB))·100, where B=Binding in the presence of test compound (in cpm) NSB=Non-specific binding in the presence of excess inhibitor (in cpm) Total=Binding in the absence of test compound (in cpm) Curve fitting of the normalized concentration response curves using a four parameter logistic fit is then performed using XLfit (v.2 or v.4, IDBS, Guildford, UK). The equation used is XLfit equation no. […] By default, min is fixed at 0, whereas max is not fixed.

[4] = 10 nM radioligand, n = 3, read-out: [^3H] 7a,25DHC Binding IC50

## CC(CO)CCC[C@@H](C)[C@H]1CC[C@H]2[C@@H]3[C@H](O)C=C4C[C@@H](O)CC[C@]4(C)[C@H]3CC[C@]12C (stereo partly drawn) [7a,27DHC, cholest-5-ene-3b,7a,27-triol]
hEBI2 [1]
  EC50: 4.8 nM
hEBI2 [2]
  EC50: 5.1 nM
hEBI2 [3]
  IC50: 362 nM

## C[C@H](CCCC(C)(C)O)[C@H]1CC[C@H]2[C@@H]3[C@H](O)C=C4C[C@@H](O)CC[C@]4(C)[C@H]3CC[C@]12C [7a,25DHC, cholest-5-ene-3b,7a,25-triol]
hEBI2 [1]
  EC50: 1.9 nM
hEBI2 [2]
  EC50: 7.5 nM
hEBI2 [3]; [4]
  IC50: 70.4 nM

## C[C@H](CCCC(C)(C)O)[C@H]1CC[C@H]2[C@@H]3[C@@H](O)C=C4C[C@@H](O)CC[C@]4(C)[C@H]3CC[C@]12C [7b,25DHC, cholest-5-ene-3b,7b,25-triol]
hEBI2 [1]; n = 3-4, read-out: FLIPR EC50
  EC50: 121 nM
hEBI2 [2]; n = 3-4, read-out: GTPgS EC50
  EC50: 221 nM
hEBI2 [3]; [4]
  IC50: 2630 nM
